# Assay results taken from patent US4301177A, “(3-Methyl-2-butenyl)propanedioic acid mono (1,2-diphenylhydrazide) and salts thereof” (Istituto de Angeli S.p.A., priority 1979, dated 1981).
# Counter-ions that a name gives are not always drawn.
# Legend:
# rats [1] = assay: Effect on arthritis induced in rats by Freund's adjuvant (Table II); assay type: in vivo, male Sprague-Dawley rats; conditions: day 20
# mice = assay: Analgesic activity, hot plate test in mice (Table III); assay type: in vivo, male Swiss mice
# Method: (§1) In the present study the test compounds were administered perorally by means of a stomach tube as an aqueous suspension in 5% acacia gum at a constant volume of 10 ml/kg to male Swiss mice and male Sprague-Dawley rats. Control rats and mice were given a corresponding volume of the aqueous suspension medium. The results were statistically evaluated by Dunnett's test (C. V. Dunnett.: J.A. Stat. Ass., 40, 1096, 1955).
# The analgesic activity was evaluated in mice by the hot plate test according to Janssen and Jageneau (J.Pharm.Pharmac., 9, 381, 1957).
# The plate temperature was kept constant at 55° C.; the reaction time was determined before and 30, 60, 90 and 120 minutes after oral administration of the test compound. Average values after administration of the test compound were compared to those obtained before treatment.
# rats [2] = assay: Analgesic-anti-inflammatory activity, Randall and Selitto, brewer's yeast inflamed paw in rats (Table IV); assay type: in vivo, male Sprague-Dawley rats; conditions: for Analgesic Index: ratio to controls (1.0)
# Method: as §1
# 4. Analgesic-anti-inflammatory activity
# The analgesic-anti-inflammatory activity was evaluated in rats by the method of Randall and Selitto (Arch. Int. Pharmacodyn., 111, 409, 1957), using an analgesimeter to measure the minimum load that must be applied to a rat's hind paw to elicit a painful stimulus.
# Both the controls and the experimental rats were injected into the right hind paw with 0.1 ml of 20% brewer's yeast in sterile saline immediately before the administration of the test compound.
# The volume of the inflamed right hind paw was measured 1, 2 and 4 hours after the administration of the test compound.
# The analgesic-anti-inflammatory activity was evaluated using an "analgesic index" expressed as a ratio between the sum of the average weights (grams) necessary to provoke a painful stimulus at different times in treated and control animals.
# rats [3] = assay: Antipyretic activity, fever induced by brewer's yeast in rats (Table V); assay type: in vivo, male Sprague-Dawley rats
# Method: as §1
# The antipyretic activity was investigated in rats by the method of Niemegeers et al. (see Arzneim.Forsch. 25, 1519, 1975). The rectal temperature was measured immediately before and 4 hours after the subcutaneous injection of 1 ml/100 g body weight of a 15% brewer's yeast suspension in 1% acacia gum.
# The test compound was administered orally to groups of 5 different rats per dose 4 hours after the yeast injection. The rectal temperature was measured 0.5, 1, 1.5, 2, 2.5, 3 and 19 hours after treatment.
# (§2) Average values of the temperatures obtained in the treated rats were compared with those of control rats.
# rats [4] = assay: Effect on normal temperature of rats (Table VI); assay type: in vivo, male Sprague-Dawley rats
# Method: as §1
# 6. Effect on normal temperature of rats
# The rectal temperature was measured at 30-minute intervals before and after administration of the test compound, that is, at -1.5, -1, -0.5, 0.5, 1, 1.5 and 2 hours, using groups of 10 rats each for each dosage level.
# as §2
# in vivo = conditions: rat, in vivo, po
# Method: as §1, with “medium.” for “medium. The results were statistically evaluated by Dunnett's test (C. V. Dunnett.: J.A. Stat. Ass., 40, 1096, 1955).”
# (§3) The acute toxicity was determined on groups of 10 rats treated orally with 500, 1000, 1500 and 2000 mg/kg of the test compound by means of a stomach tube.
# rats [5] = assay: in vivo
# Method: as §1, with “medium.” for “medium. The results were statistically evaluated by Dunnett's test (C. V. Dunnett.: J.A. Stat. Ass., 40, 1096, 1955).”
# as §3
# rats [6] = assay: Ulcerogenic effect, gastric lesions in rats (Table VIII); assay type: in vivo, male Sprague-Dawley rats; conditions: for Body weight, mean ± standard deviation / % animals with gastric lesions / Ulcerogenic Index: single dose; for % animals with gastric lesions / Ulcerogenic Index: 16 h
# Method: as §1
# The ulcerogenic effect was determined in rats by the method of Niemegeers et al. (Arzneimittel-Forschung 25, 1537, 1975). A single oral dose was administered to groups of 15 rats fasted for 9 hours before treatment and kept fasting throughout the whole experimental period. The animals were sacrificed 16 hours after treatment; the severity of lesions was scored according to an arbitrary scale ranging from + to ++++. For each group of rats, an ulcerogenic index was calculated according to Pauls et al., (Gastroenterology 8, 774, 1947).
compound,measurement,setting,value
"CC(C)=CCC(C(=O)O)C(=O)N(Nc1ccccc1)c1ccccc1 (stereo not drawn) [A, Calcium salt of (3-methyl-2-butenyl)propanedioic acid mono(1,2-diphenylhydrazide)]",% Inhibition,rats [1]; 40 mg/kg oral,34%
same,% Inhibition,rats [1]; 80 mg/kg oral,35%
same,% Inhibition,rats [1]; 160 mg/kg oral,45%
same,Reaction time,"mice; 50 mg/kg oral, 0 (before administration)",15.40 ± 2.76 s
same,Reaction time,"mice; 50 mg/kg oral, 30 min",16.70 ± 3.86 s
same,Reaction time,"mice; 100 mg/kg oral, 0 (before administration)",12.90 ± 3.21 s
same,Reaction time,"mice; 200 mg/kg oral, 0 (before administration)",14.40 ± 2.95 s
same,analgesic activity in the hot plate test compared with bumadizon calcium,"mice; summary, Table III","higher, begins earlier and lasts longer than that of bumadizon calcium"
same,Mean of the weights eliciting painful stimulus,"rats [2]; 40 mg/kg oral, 1 h",196.2 grams
same,Mean of the weights eliciting painful stimulus,"rats [2]; 40 mg/kg oral, 2 h",128.8 grams
same,Mean of the weights eliciting painful stimulus,"rats [2]; 40 mg/kg oral, 4 h",95.0 grams
same,Analgesic Index,rats [2]; 40 mg/kg oral,1.49
same,Mean of the weights eliciting painful stimulus,"rats [2]; 80 mg/kg oral, 1 h",192.6 grams
same,Mean of the weights eliciting painful stimulus,"rats [2]; 80 mg/kg oral, 2 h",147.6 grams
same,Mean of the weights eliciting painful stimulus,"rats [2]; 80 mg/kg oral, 4 h",146.2 grams
same,Analgesic Index,rats [2]; 80 mg/kg oral,1.72
same,Mean of the weights eliciting painful stimulus,"rats [2]; 160 mg/kg oral, 1 h",245.0 grams
same,Mean of the weights eliciting painful stimulus,"rats [2]; 160 mg/kg oral, 2 h",171.2 grams
same,Mean of the weights eliciting painful stimulus,"rats [2]; 160 mg/kg oral, 4 h",143.8 grams
same,Analgesic Index,rats [2]; 160 mg/kg oral,1.98
same,Rectal temperature,"rats [3]; 40 mg/kg oral, 0 h (4 h after yeast, before treatment)",38.00 °C
same,Rectal temperature,"rats [3]; 40 mg/kg oral, 0.5 h",37.51 °C
same,Rectal temperature,"rats [3]; 40 mg/kg oral, 1 h",38.41 °C
same,Rectal temperature,"rats [3]; 40 mg/kg oral, 1.5 h",38.24 °C
same,Rectal temperature,"rats [3]; 40 mg/kg oral, 2 h",38.23 °C
same,Rectal temperature,"rats [3]; 40 mg/kg oral, 2.5 h",38.28 °C
same,Rectal temperature,"rats [3]; 40 mg/kg oral, 3 h",38.10 °C
same,Rectal temperature,"rats [3]; 40 mg/kg oral, 19 h",37.51 °C
same,Rectal temperature,"rats [3]; 40 mg/kg oral, -4 h (before yeast)",37.00 °C
same,Rectal temperature,"rats [3]; 80 mg/kg oral, 0 h (4 h after yeast, before treatment)",38.14 °C
same,Rectal temperature,"rats [3]; 80 mg/kg oral, 0.5 h",37.16 °C
same,Rectal temperature,"rats [3]; 80 mg/kg oral, 1 h",37.47 °C
same,Rectal temperature,"rats [3]; 80 mg/kg oral, 1.5 h",37.54 °C
same,Rectal temperature,"rats [3]; 80 mg/kg oral, 2 h",37.57 °C
same,Rectal temperature,"rats [3]; 80 mg/kg oral, 2.5 h",37.47 °C
same,Rectal temperature,"rats [3]; 80 mg/kg oral, 3 h",37.47 °C
same,Rectal temperature,"rats [3]; 80 mg/kg oral, 19 h",36.75 °C
same,Rectal temperature,"rats [3]; 80 mg/kg oral, -4 h (before yeast)",37.06 °C
same,Rectal temperature,"rats [3]; 160 mg/kg oral, 0 h (4 h after yeast, before treatment)",38.06 °C
same,Rectal temperature,"rats [3]; 160 mg/kg oral, 0.5 h",37.14 °C
same,Rectal temperature,"rats [3]; 160 mg/kg oral, 1 h",37.20 °C
same,Rectal temperature,"rats [3]; 160 mg/kg oral, 1.5 h",37.62 °C
same,Rectal temperature,"rats [3]; 160 mg/kg oral, 2 h",37.67 °C
same,Rectal temperature,"rats [3]; 160 mg/kg oral, 2.5 h",37.58 °C
same,Rectal temperature,"rats [3]; 160 mg/kg oral, 3 h",37.76 °C
same,Rectal temperature,"rats [3]; 160 mg/kg oral, 19 h",37.86 °C
same,Rectal temperature,"rats [3]; 160 mg/kg oral, -4 h (before yeast)",36.46 °C
same,Rectal temperature (normal rats),"rats [4]; 40 mg/kg oral, 0.5 h",35.96 °C
same,Rectal temperature (normal rats),"rats [4]; 40 mg/kg oral, 1 h",36.28 °C
same,Rectal temperature (normal rats),"rats [4]; 40 mg/kg oral, 1.5 h",36.34 °C
same,Rectal temperature (normal rats),"rats [4]; 40 mg/kg oral, 2 h",36.54 °C
same,Rectal temperature (normal rats),"rats [4]; 40 mg/kg oral, -0.5 h (before administration)",36.20 °C
same,Rectal temperature (normal rats),"rats [4]; 40 mg/kg oral, -1 h (before administration)",36.62 °C
same,Rectal temperature (normal rats),"rats [4]; 40 mg/kg oral, -1.5 h (before administration)",36.81 °C
same,Rectal temperature (normal rats),"rats [4]; 80 mg/kg oral, 0.5 h",36.25 °C
same,Rectal temperature (normal rats),"rats [4]; 80 mg/kg oral, 1 h",36.12 °C
same,Rectal temperature (normal rats),"rats [4]; 80 mg/kg oral, 1.5 h",36.14 °C
same,Rectal temperature (normal rats),"rats [4]; 80 mg/kg oral, 2 h",36.15 °C
same,Rectal temperature (normal rats),"rats [4]; 80 mg/kg oral, -0.5 h (before administration)",36.33 °C
same,Rectal temperature (normal rats),"rats [4]; 80 mg/kg oral, -1 h (before administration)",36.42 °C
same,Rectal temperature (normal rats),"rats [4]; 80 mg/kg oral, -1.5 h (before administration)",36.75 °C
same,Rectal temperature (normal rats),"rats [4]; 160 mg/kg oral, 0.5 h",35.71 °C
same,Rectal temperature (normal rats),"rats [4]; 160 mg/kg oral, 1 h",35.85 °C
same,Rectal temperature (normal rats),"rats [4]; 160 mg/kg oral, 1.5 h",35.91 °C
same,Rectal temperature (normal rats),"rats [4]; 160 mg/kg oral, 2 h",35.86 °C
same,Rectal temperature (normal rats),"rats [4]; 160 mg/kg oral, -0.5 h (before administration)",36.22 °C
same,Rectal temperature (normal rats),"rats [4]; 160 mg/kg oral, -1 h (before administration)",36.32 °C
same,Rectal temperature (normal rats),"rats [4]; 160 mg/kg oral, -1.5 h (before administration)",37.01 °C
same,LD50 at 168 h,in vivo,1060 mg/kg
same,LD50 confidence limits,"rats [5]; rat, in vivo, po",721.30 to 1550.51 mg/kg
same,toxicity compared with prior art compound,"rats [5]; summary, Table VII",less toxic
same,"Body weight, mean ± standard deviation",rats [6]; 40 mg/kg oral,206.67 ± 9.00 grams
same,% animals with gastric lesions,rats [6]; 40 mg/kg oral,0%
same,Ulcerogenic Index,rats [6]; 40 mg/kg oral,0
same,"Body weight, mean ± standard deviation",rats [6]; 80 mg/kg oral,205.33 ± 6.40 grams
same,% animals with gastric lesions,rats [6]; 80 mg/kg oral,0%
same,Ulcerogenic Index,rats [6]; 80 mg/kg oral,0
same,"Body weight, mean ± standard deviation",rats [6]; 160 mg/kg oral,212.67 ± 12.23 grams
same,% animals with gastric lesions,rats [6]; 160 mg/kg oral,0%
same,Ulcerogenic Index,rats [6]; 160 mg/kg oral,0
same,"Body weight, mean ± standard deviation",rats [6]; 320 mg/kg oral,218.67 ± 6.40 grams
same,% animals with gastric lesions,rats [6]; 320 mg/kg oral,46.66%
same,Ulcerogenic Index,rats [6]; 320 mg/kg oral,71.38
same,ulcerogenic effect compared with prior art compound,"rats [6]; summary, Table VIII",less ulcerogenic
